Reference: patent publication US5814488A (priority 1993, dated 1998)
Converted amounts (≈) assume the structure as drawn. Where two headings read alike, the source gives them in different places.

Tests used:
[1] = guinea pig, in vivo
Escherichia coli = test: Comparison of MIC and MBC (Tables 5 and 6); format: cell-based; settings: Table 6, 20 strains
Excerpt: (§1) […]. […] […]

Pseudomonas sp. = test: Comparison of MIC and MBC (Tables 5 and 6); format: cell-based; settings: Table 6, Pseudomonas sp., 20 strains
Excerpt: as §1

S. aureus = test: Comparison of MIC and MBC (Tables 5 and 6); format: cell-based; settings: Table 6, S. aureus, 31 strains
Excerpt: as §1

Klebsiella pneumoniae = test: Comparison of MIC and MBC (Tables 5 and 6); format: cell-based; settings: Table 6, 20 strains
Excerpt: as §1

Shigella = test: Comparison of MIC and MBC (Tables 5 and 6); format: cell-based; settings: Table 6, 10 strains
Excerpt: as §1

[2] = Nephrotoxicity to rat after i.m. administration; settings: gentamicin at 150 MKD and 100 MKD from seventh day

NCC[C@H](O)C(=O)N[C@@H]1C[C@H](N)[C@@H](O[C@H]2O[C@H](CN)[C@@H](O)[C@H](O)[C@H]2O)[C@H](O)[C@H]1O[C@H]1O[C@H](CO)[C@@H](O)[C@H](N)[C@H]1O [Amikacin]
ABR threshold [1]: increases of ABR threshold were observed | auditory function [1]: nearly all the auditory function of the animals were lost | MBC (Escherichia coli; read-out: MBC90): 2 µg/mL (≈ 3.42 µM) | MBC (Escherichia coli; read-out: MBC range): 0.25 to 8 µg/mL (≈ 0.427 to 13.7 µM) | MBC (Pseudomonas sp.; read-out: MBC90): 64 µg/mL (≈ 109 µM) | MBC (Pseudomonas sp.; read-out: MBC range): 1 to 64 µg/mL (≈ 1.71 to 109 µM) | MBC (S. aureus; Staphylococcus aureus, read-out: MBC90): 32 µg/mL (≈ 54.6 µM) | MBC range (S. aureus; in µg/mL (unit assumed)): 0.125-128 | MBC (Klebsiella pneumoniae; read-out: MBC90): 1 µg/mL (≈ 1.71 µM) | MBC (Klebsiella pneumoniae; read-out: MBC range): 0.125 to 2 µg/mL (≈ 0.213 to 3.42 µM) | MBC (Shigella; read-out: MBC90): 0.5 µg/mL (≈ 0.854 µM) | MBC (Shigella; read-out: MBC range): 0.25 to 1 µg/mL (≈ 0.427 to 1.71 µM) | dead animals [2]: no dead
